According to patent publication US20240293588A1, “THERAPEUTIC CONJUGATES” (Starpharma Pty Ltd, priority 2020, published 2024):

How the values were obtained:
MDA-MB-231 cells [1] = assay: Confocal cellular uptake, MDA-MB-231; type: cell-based; conditions: MDA-MB-231, 3.33 nM, 24 h
Protocol: MDA-MB-231, MDA-MB-231/HER2 and SKOV-3 cells were plated at 1.0×10^4 cells per well into μ-slide 8-well chambered coverslip (ibidi) and allowed to adhere overnight at 37° C., 5% CO2. Compound 71 and Compound 123 (3.33 nM) were then added and allowed to incubate for 1, 3, 6, and 24 h. The cells were washed and then fixed with 1% paraformaldehyde for 20 min at room temperature. The cell membrane was stained with Alexa Fluor 488-wheat germ agglutinin (AF488-WGA, 5 μg mL^−1) in DPBS at room temperature for 10 min. The cell nuclei were counterstained with 4′,6-diamidino-2-phenylindole (DAPI, 2 μg mL^−1) in DPBS at room temperature for 10 min. Fluorescence images and optical sections were collected using a confocal microscope (Leica SP8). Images were processed with Fiji (Image J 1.52n).

[2] = test system: MDA-MB-231 cells (HER2 lo); assay: In vitro association study (flow cytometry), MDA-MB-231; type: cell-based, human; conditions: MDA-MB-231, over 24 h, result in words
[3] = test system: MDA-MB-231/HER2 transfected cells; assay: Cytotoxicity alamarBlue assay, MDA-MB-231/HER2 (HER2 hi); type: cell-based; conditions: 48 h; for Cell viability %: mean ± sd, n=4
Protocol: MDA-MB-231 breast cancer cells were transfected with plasmid HER2 WT Addgene, 16257) using Lipofectamine 3000 according to manufacturer's instructions. After passaging in the presence of 500 μg/ml Geneticin (Thermo Fisher, catalogue 10131035), cells with stable overexpression of HER2 WT were isolated by fluorescence activated single cell sorting using a MoFlo Astrios (Beckman Coulter). A clonal cell population isolated from this process was further passaged in Geneticin before a second round of cell sorting and screening for transgene expression. A selected clone was then further expanded and stocks of this cell line, referred to as MDA-MB-231/HER2, were cryopreserved to generate a master stock of stably transduced cells.
(§1) The cytotoxicity of Compound 71 (control) and Compound 123 (targeted) toward MDA-MB-231, and MDA-MB-231/HER2 transfected cells were evaluated via alamarBlue assays. Cells were seeded at a density of 5×10^3, in 96-well plates and incubated overnight. Cells were then treated with indicated concentrations of test compositions for 48 h. AlamarBlue (Thermo Fisher, DAL1025) was added during the final 4 h of incubation. Reduction of alamarBlue in living cells yields a red fluorescent metabolite that can be read on a plate reader (560 nm excitation/610 nm emission). Cell viability and subsequent IC50 was determined from the blank corrected dose-response curves, with 4-parameter nonlinear nonlinear curve fit, variable slope (four parameters) in GraphPad Prism 7.02. […] Compound 123 (targeted) is approximately 140-fold increase in MDA-MB-231/HER2 cell growth inhibition compared to Compound 71 (control).

MDA-MB-231 cells [4] = assay: GI50 panel (MTT assay), MDA-MB-231; type: cell-based; conditions: MDA-MB-231, MTT, 72 h; Kadcyla based on estimated weight ADC; footnote: based on MMAE drug equivalents
[5] = test system: MDA-MB-231/HER2 (HER2 knock in) cells; assay: In vitro association study (flow cytometry), MDA-MB-231/HER2; type: cell-based, human
SKOV-3 cells [6] = assay: In vitro association study (flow cytometry), SKOV-3; type: cell-based, human
Protocol: The HER2-expressing human metastatic carcinoma cell line MDA-MB-453 (ATCC HTB-131) and the HER2-lo epithelial adenocarcinoma cell line MDA-MB-231 (ATCC HTB-26) were maintained in Dulbecco's Modified Eagle's Medium (DMEM) containing 10% FBS and penicillin-streptomycin (100 U/mL) at 37° C. under a 5% CO2 humidified atmosphere and subcultured prior to confluence using trypsin. Human adenocarcinoma ovary cell line SKOV-3 (ATCC® HTB-77) cells were maintained in RPMI media with the addition of 10% (v/v) FBS and penicillin-streptomycin (100 U/mL) at 37° C. in a 5% CO2 humidified atmosphere and subcultured prior to confluence.
MDA-MB-231, MDA-MB-231/HER2 (HER2 knock in) (as described in Ex 6 above), or SKOV-3 cells were seeded in a 24-well plate (1×10^5 cells per well) in 500 μL of appropriate growth media with the addition of 10% (v/v) fetal bovine serum (FBS) and incubated with Compound 36 or Compound 41 at 3.33 nM, with incubation time varied from 1 to 24 h at 37° C. in a 5% CO2 humidified atmosphere. […] Cellular binding and association of sample were then determined through flow cytometry by the acquisition of the signal from Cy5.
To measure internalisation kinetics, nanobody-dendrimer was incubated with cells for 24, 4, 1, 0.5, and 0.1 hours at 37° C. before unbound nanobody-dendrimer was removed by washing and analysed by flow cytometry.

SKOV-3 cells [7] = assay: GI50 panel (MTT assay), SKOV-3; type: cell-based; conditions: SKOV-3, MTT, 72 h; Kadcyla based on estimated weight ADC; footnote: based on MMAE drug equivalents
SK-Br-3 cells = assay: GI50 panel (MTT assay), SK-BR-3; type: cell-based; conditions: SK-BR-3, MTT, 72 h; Kadcyla based on estimated weight ADC; footnote: based on MMAE drug equivalents
NCI-N87 cells = assay: GI50 panel (MTT assay), NCI-N87; type: cell-based; conditions: NCI-N87, MTT, 72 h; Kadcyla based on estimated weight ADC; footnote: based on MMAE drug equivalents
MDA-MB-231 cells [8] = assay: Cytotoxicity alamarBlue assay, MDA-MB-231 (HER2 lo); type: cell-based; conditions: 48 h; for Cell viability %: mean ± sd, n=4
Protocol: as §1

OE-19 cells = assay: GI50 panel (MTT assay), OE19; type: cell-based; conditions: OE19, MTT, 72 h; Kadcyla based on estimated weight ADC; footnote: based on MMAE drug equivalents
BT474 tumours = assay: Radiotherapeutic efficacy (177Lu) in BT474 xenograft model; type: in vivo, Balb/c nude mice; conditions: 177Lu-labelled test articles, IV
Protocol: Healthy in female Balb/c nude mice (aged 9 weeks) were obtained from the Animal Resource Centre, Western Australia. A total of four mice per dosing group were initially implanted with estrogen pellets (17Beta-estradiol 0.72 mg/pellet 60 Day Release; Innovative Research of America) and then on day 2 were innoculated subcutaneously in the breast mammary fat pad with 10×10^6 BT474 cells in PBS:Matrigel (1:1). Mice were weighed, and tumours measured 2-3 times weekly using electronic callipers. Tumour volume (mm^3) were calculated as ((length (mm)×((width (mm))^2)/2. Mice were randomised into eight dosing groups outlined in the Table below as tumours reached mean volumes of approximately 100 mm^3 (approximately 5 weeks from implantation of cells).
Samples of each solution were taken and mixed 1:1 with 50 mM DTPA. 5 μL of each DTPA incubated sample or neat solution was spotted on TLC paper (Agilent iTLC-SG Glass microfiber chromatography paper impregnated with silica gel) and run with 50:50 H2O:ethanol. Detection of radiolabelled species migration was then achieved using an Eckert and Ziegler Mini-Scan and Flow-Count system. […] Control experiments were conducted to monitor the elution behaviour of free ^177Lu and ^177Lu bound to DTPA for quality control. […]

Substance: (MeTzPh)PEG4CO-NHPEG24CO—[N(PN)2][Lys]2[Lys]4[Lys]8[((α-NHCy5)1(α-NHGlu-VC-PAB-MMAE)7)(ε-NH-COPEG1100)8], G3 [Compound 71]
- association with cells (confocal microscopy) (MDA-MB-231 cells [1]): little
- binding towards cell line (flow cytometry) [2]: minimal binding
- Cell viability % ([3]; MDA-MB-231/HER2, MMAE concentration 1 × 10^−5 M): 61.6 ± 3.1%
- Cell viability % ([3]; MDA-MB-231/HER2, MMAE concentration 1 × 10^−6 M): 78.2 ± 9.1%
- Cell viability % ([3]; MDA-MB-231/HER2, MMAE concentration 1 × 10^−7 M): 96.1 ± 3.6%
- Cell viability % ([3]; MDA-MB-231/HER2, MMAE concentration 1 × 10^−8 M): 95.4 ± 7.6%
- Cell viability % ([3]; MDA-MB-231/HER2, MMAE concentration 5 × 10^−5 M): 49.9 ± 15.0%
- IC50 ([3]; MDA-MB-231/HER2, alamarBlue, MMAE concentration): 2840 nM
- GI50 (MDA-MB-231 cells [4]): 12500 nM
- mean fluorescence intensity (Cy5) ([5]; MDA-MB-231/HER2, 3.33 nM, 24 h, 37° C., mean±SD, n=3): 16.05±1.89
- binding towards cell line (flow cytometry) ([5]; MDA-MB-231/HER2, over 24 h, result in words): minimal binding
- mean fluorescence intensity (Cy5) (SKOV-3 cells [6]; SKOV-3, 3.33 nM, 24 h, 37° C., mean±SD, n=3): 16.4±6.86
- binding towards cell line (flow cytometry) (SKOV-3 cells [6]; SKOV-3, over 24 h, result in words): minimal binding
- GI50 (SKOV-3 cells [7]): 1600 nM
- GI50 (SK-Br-3 cells): 948 nM
- GI50 (NCI-N87 cells): 2040 nM
- Cell viability % (MDA-MB-231 cells [8]; MDA-MB-231, MMAE concentration 1 × 10^−5 M): 94.2 ± 12.1%
- Cell viability % (MDA-MB-231 cells [8]; MDA-MB-231, MMAE concentration 1 × 10^−6 M): 94.4 ± 8.2%
- Cell viability % (MDA-MB-231 cells [8]; MDA-MB-231, MMAE concentration 1 × 10^−7 M): 94.2 ± 12.5%
- Cell viability % (MDA-MB-231 cells [8]; MDA-MB-231, MMAE concentration 1 × 10^−8 M): 96.6 ± 11.7%
- Cell viability % (MDA-MB-231 cells [8]; MDA-MB-231, MMAE concentration 5 × 10^−5 M): 81.1 ± 5.4%
- IC50 (MDA-MB-231 cells [8]; MDA-MB-231, alamarBlue, MMAE concentration): Ambiguous
- GI50 (OE-19 cells): 6120 nM

Substance: BHALys[Lys]2[Lys]4[Lys]8[Lys]16[Lys]32[(α-NHAc)30(α-NHDOTA)2(ε-NHCOPEG2000)32] [Compound RH-3-160]
- suppression of tumour growth (BT474 tumours): effective in suppressing tumour growth
